# Laboratory results from PubChem BioAssay (NCI).
#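 All cell lines were grown in 96-well plates and treated with compound for 48 hours. Definition used: TGI = concentration required for complete inhibition of growth.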
# Assays:
# Assay in all cases: DTP human tumour cell line panel, 48 h
# NCI-H23 lung = tested on: NCI-H23 lung
# EKVX NSCLC = tested on: EKVX NSCLC
# SF-539 CNS = tested on: SF-539 CNS
# DMS 114 small cell lung = tested on: DMS 114 small cell lung
# UO-31 renal = tested on: UO-31 renal
# TK-10 renal = tested on: TK-10 renal
# LOX IMVI melanoma = tested on: LOX IMVI melanoma
# M14 melanoma = tested on: M14 melanoma
# ACHN renal = tested on: ACHN renal
# HCT-116 colon = tested on: HCT-116 colon
# MOLT-4 leukemia = tested on: MOLT-4 leukemia
# HOP-62 NSCLC = tested on: HOP-62 NSCLC
# CCRF-CEM leukemia = tested on: CCRF-CEM leukemia
# U251 CNS = tested on: U251 CNS
# OVCAR-3 ovarian = tested on: OVCAR-3 ovarian
# RXF 393 renal = tested on: RXF 393 renal
# COLO 205 colon = tested on: COLO 205 colon
# HOP-92 NSCLC = tested on: HOP-92 NSCLC
# SR leukemia = tested on: SR leukemia
# SNB-19 CNS = tested on: SNB-19 CNS
# HCC-2998 colon = tested on: HCC-2998 colon
# SF-268 CNS = tested on: SF-268 CNS
# HCT-15 colon = tested on: HCT-15 colon
# KM20L2 colon = tested on: KM20L2 colon
# OVCAR-4 ovarian = tested on: OVCAR-4 ovarian
# SNB-78 CNS = tested on: SNB-78 CNS
# RPMI-8226 leukemia = tested on: RPMI-8226 leukemia
# SNB-75 CNS = tested on: SNB-75 CNS
# SN12C renal = tested on: SN12C renal
# LXFL 529 NSCLC = tested on: LXFL 529 NSCLC
# A549 NSCLC = tested on: A549 NSCLC
# M19-MEL melanoma = tested on: M19-MEL melanoma
# OVCAR-5 ovarian = tested on: OVCAR-5 ovarian
# IGROV1 ovarian = tested on: IGROV1 ovarian
# SK-MEL-5 melanoma = tested on: SK-MEL-5 melanoma
# SK-MEL-28 melanoma = tested on: SK-MEL-28 melanoma
# OVCAR-8 ovarian = tested on: OVCAR-8 ovarian
# DMS 273 small cell lung = tested on: DMS 273 small cell lung
# HL-60(TB) leukemia = tested on: HL-60(TB) leukemia
# KM12 colon = tested on: KM12 colon
# UACC-257 melanoma = tested on: UACC-257 melanoma
# NCI-H460 lung = tested on: NCI-H460 lung
# SW-620 colon = tested on: SW-620 colon
# K-562 leukemia = tested on: K-562 leukemia
# UACC-62 melanoma = tested on: UACC-62 melanoma
# HOP-18 NSCLC = tested on: HOP-18 NSCLC
# SK-MEL-2 melanoma = tested on: SK-MEL-2 melanoma
# HT29 colon = tested on: HT29 colon
# XF 498 CNS = tested on: XF 498 CNS
# NCI-H522 lung = tested on: NCI-H522 lung
# 786-0 renal = tested on: 786-0 renal
# DLD-1 colon = tested on: DLD-1 colon
# SK-OV-3 ovarian = tested on: SK-OV-3 ovarian
# MALME-3M melanoma = tested on: MALME-3M melanoma
# SF-295 CNS = tested on: SF-295 CNS
# A498 renal = tested on: A498 renal
smiles,measurement,setting,value
O=C(O)CC/C(=N\Nc1nsc2ccccc12)c1ccccc1,TGI,NCI-H23 lung,95.8 µM
same,TGI,EKVX NSCLC,> 100 µM
same,TGI,SF-539 CNS,> 100 µM
same,TGI,DMS 114 small cell lung,82 µM
same,TGI,UO-31 renal,> 100 µM
same,TGI,TK-10 renal,> 100 µM
same,TGI,LOX IMVI melanoma,> 100 µM
same,TGI,M14 melanoma,> 100 µM
same,TGI,ACHN renal,> 100 µM
same,TGI,HCT-116 colon,> 100 µM
same,TGI,MOLT-4 leukemia,91.6 µM
same,TGI,HOP-62 NSCLC,> 100 µM
same,TGI,CCRF-CEM leukemia,96.7 µM
same,TGI,U251 CNS,> 100 µM
same,TGI,OVCAR-3 ovarian,75.3 µM
same,TGI,RXF 393 renal,> 100 µM
same,TGI,COLO 205 colon,> 100 µM
same,TGI,HOP-92 NSCLC,> 100 µM
same,TGI,SR leukemia,93.3 µM
same,TGI,SNB-19 CNS,> 100 µM
same,TGI,HCC-2998 colon,90.8 µM
same,TGI,SF-268 CNS,> 100 µM
same,TGI,HCT-15 colon,> 100 µM
same,TGI,KM20L2 colon,> 100 µM
same,TGI,OVCAR-4 ovarian,> 100 µM
same,TGI,SNB-78 CNS,> 100 µM
same,TGI,RPMI-8226 leukemia,49.6 µM
same,TGI,SNB-75 CNS,61.3 µM
same,TGI,SN12C renal,> 100 µM
same,TGI,LXFL 529 NSCLC,> 100 µM
same,TGI,A549 NSCLC,> 100 µM
same,TGI,M19-MEL melanoma,> 100 µM
same,TGI,OVCAR-5 ovarian,> 100 µM
same,TGI,IGROV1 ovarian,> 100 µM
same,TGI,SK-MEL-5 melanoma,> 100 µM
same,TGI,SK-MEL-28 melanoma,> 100 µM
same,TGI,OVCAR-8 ovarian,> 100 µM
same,TGI,DMS 273 small cell lung,67.3 µM
same,TGI,HL-60(TB) leukemia,71.9 µM
same,TGI,KM12 colon,> 100 µM
same,TGI,UACC-257 melanoma,> 100 µM
same,TGI,NCI-H460 lung,> 100 µM
same,TGI,SW-620 colon,> 100 µM
same,TGI,K-562 leukemia,> 100 µM
same,TGI,UACC-62 melanoma,> 100 µM
same,TGI,HOP-18 NSCLC,> 100 µM
same,TGI,SK-MEL-2 melanoma,> 100 µM
same,TGI,HT29 colon,> 100 µM
O=C(N/N=C/c1ccccc1O)c1cccc([N+](=O)[O-])c1,TGI,XF 498 CNS,> 100 µM
same,TGI,NCI-H23 lung,> 95.5 µM
same,TGI,EKVX NSCLC,82.8 µM
same,TGI,NCI-H522 lung,> 100 µM
same,TGI,SF-539 CNS,> 82.1 µM
same,TGI,786-0 renal,> 100 µM
same,TGI,DLD-1 colon,> 100 µM
same,TGI,DMS 114 small cell lung,39.3 µM
same,TGI,UO-31 renal,56.5 µM
same,TGI,TK-10 renal,> 84.6 µM
same,TGI,LOX IMVI melanoma,> 81.4 µM
same,TGI,M14 melanoma,43.2 µM
same,TGI,ACHN renal,> 100 µM
same,TGI,HCT-116 colon,> 100 µM
same,TGI,MOLT-4 leukemia,> 100 µM
same,TGI,CCRF-CEM leukemia,> 100 µM
same,TGI,U251 CNS,> 100 µM
same,TGI,OVCAR-3 ovarian,6.73 µM
same,TGI,RXF 393 renal,> 88.9 µM
same,TGI,COLO 205 colon,> 100 µM
same,TGI,SR leukemia,> 100 µM
same,TGI,SNB-19 CNS,> 100 µM
same,TGI,HCC-2998 colon,> 100 µM
same,TGI,SF-268 CNS,> 100 µM
same,TGI,HCT-15 colon,> 100 µM
same,TGI,KM20L2 colon,> 100 µM
same,TGI,OVCAR-4 ovarian,> 100 µM
same,TGI,SNB-78 CNS,> 100 µM
same,TGI,RPMI-8226 leukemia,> 100 µM
same,TGI,SN12C renal,> 100 µM
same,TGI,SK-OV-3 ovarian,> 78.3 µM
same,TGI,LXFL 529 NSCLC,> 100 µM
same,TGI,MALME-3M melanoma,> 100 µM
same,TGI,A549 NSCLC,> 100 µM
same,TGI,SF-295 CNS,68.3 µM
same,TGI,M19-MEL melanoma,66.2 µM
same,TGI,OVCAR-5 ovarian,> 100 µM
same,TGI,IGROV1 ovarian,79.6 µM
same,TGI,SK-MEL-5 melanoma,> 61.3 µM
same,TGI,SK-MEL-28 melanoma,> 100 µM
same,TGI,OVCAR-8 ovarian,> 100 µM
same,TGI,DMS 273 small cell lung,> 100 µM
same,TGI,HL-60(TB) leukemia,> 39.3 µM
same,TGI,KM12 colon,> 100 µM
same,TGI,UACC-257 melanoma,> 60.6 µM
same,TGI,NCI-H460 lung,> 100 µM
same,TGI,SW-620 colon,> 100 µM
same,TGI,K-562 leukemia,> 100 µM
same,TGI,UACC-62 melanoma,> 70.8 µM
same,TGI,HOP-18 NSCLC,> 100 µM
same,TGI,SK-MEL-2 melanoma,> 100 µM
same,TGI,A498 renal,> 100 µM
same,TGI,HT29 colon,> 100 µM
